From patent US9453244B2, “Method for producing a monoalkene by enzymatic conversion of an alkyl monoester” (Scientist of Fortune S.A., priority 2012, dated 2016)

What was measured:
[1] = test system: purified terpene synthases; assay: Propylene production from propan-2-yl diphosphate with purified terpene synthases (headspace GC/FID); assay type: biochemical; settings: 50 mM substrate, 5 mg terpene synthase in 0.5 ml, 37° C., 60 hours
Method: (§1) The enzymatic assays were carried out under the following conditions: 50 mM Tris-HCl pH 7.5 100 mM MgCl2 50 mM KCl 5 mM DTT 50 mM propan-2-yl diphosphate 5 mg of the terpene synthase was added to 0.5 ml of reaction mixture. An enzyme-free control reaction was carried out in parallel. Assays were incubated at 37° C. for 60 hours in a 1.5 ml sealed glass vial (Interchim) with shaking. One ml of the headspace phase was then collected and injected into a gas chromatograph Varian 430-GC equipped with a flame ionization detector (FID). Nitrogen was used as carrier gas with a flow rate of 1.5 mL/min. Volatile compounds were chromatographically separated on RT-Alumina Bond/Na2SO4 column (Restek) using an isothermal mode at 130° C. The enzymatic reaction product was identified by comparison with propylene standard (Sigma). Under these GC conditions, the retention time for propylene was 2.8 min. […] Gas chromatography-mass spectrometry (GC-MS) was then used to confirm the identity of the product detected by gas chromatography with flame ionization. The samples were analyzed on a Varian 3400 CX gas chromatograph equipped with Varian Saturn 3 mass selective detector. The mass spectrum of propylene obtained by enzymatic conversion of propan-2-yl diphosphate was similar to the one of commercial propylene (FIG. 3).

[2] = target: T1, isoprene synthase from Pueraria montana var. lobata (Pueraria montana var. lobata, UniProt Q6EJ97); assay: GC-MS confirmation of propylene produced from propan-2-yl diphosphate in the enzymatic reaction; assay type: biochemical; settings: FIG. 3
T1 construct: 6xHis (N); made in house; host or cells: E. coli BL21(DE3), pET 25b(+)
T1 sequence (Q6EJ97 46-608): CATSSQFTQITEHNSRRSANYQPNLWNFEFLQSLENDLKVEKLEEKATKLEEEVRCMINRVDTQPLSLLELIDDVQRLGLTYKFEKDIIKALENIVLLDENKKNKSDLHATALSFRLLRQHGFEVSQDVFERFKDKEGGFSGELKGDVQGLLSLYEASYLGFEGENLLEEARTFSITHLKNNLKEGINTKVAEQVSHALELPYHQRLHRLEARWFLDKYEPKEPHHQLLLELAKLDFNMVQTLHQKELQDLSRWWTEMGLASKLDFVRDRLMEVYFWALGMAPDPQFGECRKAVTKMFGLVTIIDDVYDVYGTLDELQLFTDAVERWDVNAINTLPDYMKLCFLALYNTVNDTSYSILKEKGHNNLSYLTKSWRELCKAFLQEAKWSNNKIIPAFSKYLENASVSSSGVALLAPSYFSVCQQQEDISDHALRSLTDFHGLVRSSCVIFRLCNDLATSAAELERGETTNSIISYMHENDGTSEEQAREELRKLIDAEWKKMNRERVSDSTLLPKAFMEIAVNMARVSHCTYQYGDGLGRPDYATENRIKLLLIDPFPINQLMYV
Method: as §1, with “5” for “The enzymatic assays were carried out under the following conditions: 50 mM Tris-HCl pH 7.5 100 mM MgCl2 50 mM KCl 5 mM DTT 50 mM propan-2-yl diphosphate 5”

## propan-2-yl diphosphate
[1]; pH 7.5
  propylene production from the substrate (enzymatic conversion): significant production of propylene
[1]; pH 7.5, listed as propan-2-yl
  propylene production from the substrate (enzymatic conversion): able to convert propan-2-yl into propylene
[2]
  propylene produced from the substrate, identity confirmed by mass spectrum: propylene produced
